Data set [1] can be described thus: method code SF-EIA, from DOI: 10.1016/j.carres.2004.12.038, PMID: 15797137.
The nature of data set [2]: method code SF, from DOI: 10.1016/s0223-5234(98)80007-x.
Data set [3] in a line: method code SF-AS, from PMID: 578762. Conditions: pH 7.4.
For data set [4] the following is noted: pH 9.2.
Experiment in data set [5]: not given
This is another data set of the same source.

Experiment in data set [6]: not given
The source holds these as a separate data set.

Data set [7] can be described thus: method code SF-AS, from PMID: 1042. Conditions: pH 7.4.
Data set [8] can be described thus: method code SF-HPLC, from DOI: 10.1002/ps.2780440103. Conditions: pH 2.0.
Data set [9] in a line: from Gehmann, K., Nyfeler, R., Leadbeater, A. J., Nevill, D. J., & Sozzi, D. (1990). CGA 173506: A new phenylpyrrole fungicide for broad-spectrum disease control. In Brighton Crop Protection Conference, ….
A short description of data set [10]: method code SF, from DOI: 10.1021/jm00151a007, PMID: 3941412. Conditions: pH 9.0.
The nature of data set [11]: method code SF-AS, from DOI: 10.5012/bkcs.2007.28.7.1183.
Data set [12] can be described thus: method code SF-RC, from PMID: 1811623.
Experiment in data set [13]: not given
The source holds these as a separate data set.

Experiment in data set [14]: not given
This is another data set of the same source.

Data set [15] can be described thus: method code SF-HPLC, from DOI: 10.1021/jm030477w, PMID: 15084119. Conditions: pH 7.4.
Data set [16] in a line: from Afshan, A.; Jehangir, M.; Amin, W.; Mujahid, A. (2000). Study of various esters of ethylcysteine acid dimer as brain perfusion imaging agents and formulation into single vial kit for labelling with …. The conditions noted are these: pH 7.5.
A short description of data set [17]: method code SF-HPLC, from DOI: 10.1002/ps.2780170106. The conditions noted are these: pH 2.0.
Data set [18] is described as follows: method code SF-RC, from DOI: 10.1111/j.1399-3054.1990.tb08712.x.
Experiment in data set [19]: not given
This is another data set of the same source.

Experiment in data set [20]: not given
This is another data set of the same source.

Experiment in data set [21]: not given
The source holds these as a separate data set.

Experiment in data set [22]: not given
This is another data set of the same source.

Data set [23] can be described thus: method code SF-F, from DOI: 10.1021/js950367f, PMID: 8901074.
A short description of data set [24]: method code SF, from DOI: 10.1002/ps.2780290303. The conditions noted are these: pH 5.0.
Data set [25] in a line: method code SF-AS, from DOI: 10.1111/j.2042-7158.1988.tb06996.x, PMID: 2907534. Conditions: pH 7.0.
Data set [26] in a line: method code SF-HPLC, from DOI: 10.1016/0378-5173(95)00102-o.
A short description of data set [27]: method code SF-AS, from DOI: 10.1016/0378-5173(88)90083-x. Conditions: pH 7.3.
Data set [28] is described as follows: method code SF-AS, from DOI: 10.1016/0014-5793(79)80862-5, PMID: 478007.
Data set [29] is described as follows: method code SF, from DOI: 10.1021/jm00114a024, PMID: 1920362.
The nature of data set [30]: method code G-GLC, from DOI: 10.1021/es00171a006.
Experiment in data set [31]: not given
The source holds these as a separate data set.

Experiment in data set [32]: not given
This is another data set of the same source.

Experiment in data set [33]: not given
The source holds these as a separate data set.

Data set [34] is described as follows: method code SF-RC, from DOI: 10.1016/j.bmc.2005.04.014, PMID: 15911305. The conditions noted are these: pH 7.4.
Experiment in data set [35]: not given
The source holds these as a separate data set.

Experiment in data set [36]: not given
This is another data set of the same source.

A short description of data set [37]: method code SF-AS, from DOI: 10.1016/0891-5849(92)90146-8, PMID: 1334029. The conditions noted are these: pH 2.0.
The nature of data set [38]: method code SF, from DOI: 10.1016/0223-5234(94)90060-4. Conditions: pH 7.4.
The nature of data set [39]: method code SF-GLC, from Hashimoto, S.; Schneider, S.; Yamamoto, T.; Morita, M. (1994). Aqueous solubility and octanol-water partition coefficient of 3,3',4,4'-tetrachloroazobenzene. 20, 125-128.
Data set [40] in a line: method code SF-AS, from DOI: 10.1016/j.ejmech.2007.07.011, PMID: 17869385. Conditions: pH 7.4.
Data set [41] is described as follows: method code SF-HPLC, from DOI: 10.1016/j.ejmech.2008.06.022, PMID: 18687506. Conditions: pH 7.4.
Data set [42] in a line: method code SF-RC, from DOI: 10.1021/jf60204a016.
A short description of data set [43]: method code SF-GLC, from DOI: 10.1016/s0380-1330(82)71969-0.
Data set [44] can be described thus: method code SF-AS, from PMID: 7849133. The conditions noted are these: pH 3.6.
A short description of data set [45]: method code SF-AS, from PMID: 582409. Conditions: pH 7.4.
Data set [46] can be described thus: from Tomlinson, E.; Davis, S.; Parr, G.; James, M.; Farraj, N.; Kinkel, J.; Gaisser, D.; Wynne, H. (1986). The filter-probe extractor: a versatile tool for the rapid determination of solute oil/water ….

On to `OC[C@H]1O[C@H](O[C@H]2O[C@H](CO)[C@@H](O)[C@H](O)[C@H]2O)[C@H](O)[C@@H](O)[C@@H]1O`, for which, in data set [1], the logP was -3.76.

As for `O=C(O)CCCn1c(=O)oc2ccccc2c1=O`, the logP stood at 0.2.

On to `Cc1nc2n(c1C)CNc1ccccc1-2`, for which the logP in [2] amounted to 2.07.

On to `CCOC(=O)/C=C1\SC(N2CCCC2)C(=O)N1C` (configuration not stated), for which the logD in data set [3] stood at 2. Consider `CC(C)CNCNC(=O)c1ccccc1`, for which, in data set [4], the logD was 1.73.

Compound `Nc1nc(N)c2nc(-c3ccccc3)c(N)nc2n1` had a logP in data set [5] of 1.24. Take `CCC(O)(CCC(N)=O)c1ccccc1` (configuration not stated): the logP in data set [6] stood at 2.11.

The compound `CCCCOc1ccc(CC(=O)NO)cc1` registered a logD in data set [7] of 2.08. Regarding `O=C(O)[C@H]1O[C@@H](Oc2ccc([N+](=O)[O-])cc2)[C@H](O)[C@@H](O)[C@@H]1O`, the logD in [8] is -0.75. In data set [9], `N#Cc1c[nH]cc1-c1cccc2c1OC(F)(F)O2` gave a logP of 2.6.

With `CNc1c(NCCSCc2nc[nH]c2C)c(=O)c1=O`, in [10], the logD is -0.08. Consider `Cc1cc(C)nc(NS(=O)(=O)c2ccc(N)cc2)n1`, for which, in data set [11], the logP amounted to 0.21. As for `Cc1c(C)c2ccc3occc3c2oc1=O`, in data set [12], the logP was found to be 2.9. `CCC(N)C(=O)Nc1c(C)cccc1C` (configuration not stated) came in with a logP in data set [13] of 0.84.

`CN1C(=O)NC(=O)C(C)(C2=CCCCC2)C1=O` (configuration not stated) returned a logP in data set [14] of 1.71.

`Nc1ccc(-c2cn3cc(I)ccc3n2)cc1`: the logD in data set [15] came to 3.58. `CCOC(=O)[C@H](CS)NCCN[C@@H](CS)C(=O)OCC`: the logD in [16] came out at 1.4.

Turning to `O=C(O)COc1cccc2ccccc12`, the logD in data set [17] worked out at 2.6. For `O=C(O)Cc1cccc2ccccc12`, the logP in data set [18] was found to be 2.24. `CCCCCOC(=O)c1ccc(O)cc1` returned a logP in data set [19] of 3.65. As to `Clc1cc2c(oc3c(Cl)c(Cl)c(Cl)cc32)c(Cl)c1Cl`, the logP in data set [20] stood at 6.6.

In the case of `O=[N+]([O-])c1nccn1CC(O)COc1ccccc1` (configuration not stated), in [21], the log partition coefficient (logP) worked out at 1.4. With `CC1=C(C)C(O)N(c2ccccc2)C1=O` (configuration not stated), the logP in [22] came to 1.63. For `COc1c2ccoc2cc2oc(=O)ccc12`, in data set [23], the logP is 2. In turn, `COC(=O)c1sccc1S(=O)(=O)NC(=O)Nc1nc(OC)nc(OC)n1` came in with a logD in data set [24] of 0.52.

In data set [25], `CCC1(c2ccccc2)C(=O)NC(=O)NC1=O` gave a logD of 1.32. `CCCCCCOC(=O)c1cccnc1` had a logP in data set [26] of 3.51.

As to `O=C(c1ccc(Cl)cc1)c1cc(F)ccc1O`, the logD in [27] was 4.05. On to `C#CC(C)N(C)C(=O)Nc1ccc(Cl)cc1` (configuration not stated), for which the logP in [28] worked out at 3. In data set [29], `CN(CCN)S(=O)(=O)c1ccc(C(C)(C)[N+](=O)[O-])c([N+](=O)[O-])c1` registered a logP of 0.62. `Clc1c(Cl)c(Cl)c2c(oc3c(Cl)c(Cl)c(Cl)c(Cl)c32)c1Cl` registered a logP in data set [30] of 7.59. Take `COc1ccc(Cc2cnc(N)nc2N)cc1Cl`: the logP in data set [31] stood at 1.65. Consider `CC1(C)NC(=O)N(c2ccc([N+](=O)[O-])c(C(F)(F)F)c2)C1=O`, for which, in data set [32], the logP turned out to be 2.31. With `CCc1cccc2ccccc12`, the lipophilicity (logP) in [33] was determined as 4.38. In data set [34], `Nc1nc(OCc2cccc(I)c2)c2nc[nH]c2n1` came in with a logD of 2.2. For the compound `Clc1cc(Cl)c(-c2cc(Cl)c(Cl)cc2Cl)cc1Cl`, the logP in [35] worked out at 6.67. For `Cc1cccc2cccc(C)c12`, the logP in data set [36] amounted to 4.26. On to `CC(=O)C(=Cc1cc(O)c(O)c([N+](=O)[O-])c1)C(C)=O`, for which the logD in [37] was 1.21. `CC(=O)Nc1ccn(C2CSC(COC(C)=O)O2)c(=O)n1` (configuration not stated) showed a logD in [38] of 0.88. `Clc1ccc(/N=N/c2ccc(Cl)c(Cl)c2)cc1Cl`: the logP in [39] amounted to 5.53. Take `Cc1c(O)c(=O)ccn1CCCn1ccnc1`: the logD in [40] was -0.46. In data set [41], `CC(=O)NCC(=O)NN=Nc1ccc(C#N)cc1` came in with a logD of 1.1. On to `CC(C)c1onc2nc(C(C)(C)C)[nH]c(=O)c12`, for which the logP in data set [42] stood at 2.34. Consider `Clc1cc(-c2ccccc2)c(Cl)c(Cl)c1Cl`, for which, in data set [43], the logP came out at 5.9. In [44], `O=C(O)c1cccnc1Nc1cccc(C(F)(F)F)c1` registered a logD of 2.95. With `Nc1nc(N)c2nc(-c3ccc(O)cc3)c(N)nc2n1`, the logD in data set [45] was determined as 0.92. Compound `CNC(=O)[C@H](Cc1ccccc1)NC(C)=O` showed a logP in [46] of 0.5.

The record behind these values is the SangsterLogP compilation.
